Results on two molecules are retold here after patent US8071786B2, “Indole compounds useful as serotonin selective agents” (Galenea Corp., priority 2005, dated 2011).

Marks after values point to notes of the source that are not given here.

The test system of test [1] is itch-associated scratching induced by serotonin. The test can be described thus: Animal model for OCD: serotonin-induced scratching. Conditions: for Number of Scratches as Percentage of Control: inducer Serotonin. The class given is in vivo, male Swiss-Webster mice. Here is the method:
(§1) The 5-HT action is at least partly mediated by 5-HT2 receptors in the skin, as shown by blocking with specific antagonists (Yamaguchi, T., Nagasawa, T., Satoh, M., Kuraishi, Y. “Itch-associated Response Induced by Intradermal Serotonin Through 5-HT2 Receptors in Mice” Neurosci. Res. 1999, 35, 77). The effect of test compounds on itch-associated scratching in the mice may indicate their action on 5-HT receptors, and a study was carried out as an animal model for OCD. The subjects were male Swiss-Webster mice, 4-6 weeks old, weighing 25-45 g. Mice were housed 5 per cage, given free access to standard mouse food and water except during experiments, and maintained in a temperature-controlled room (70° F.). Serotonin and all test drugs were made up with ascorbic acid to protect against oxidation. Two mice, one a control, the other experimental, were tested each time. Each mouse was separately placed into a plexiglas box.
Mice were injected subcutaneously between the shoulder blades with either 0.1 ml of serotonin, 0.4 mg per ml in 0.15 M saline plus ascorbic acid, 1 mg/ml, or compound 48-80 (the copolymer product of N-methyl-p-methoxyphenethylamine with formaldehyde), 1.0 mg/ml in saline plus ascorbic acid. Test compounds were injected i.p. 5 minutes before the inducer. The cumulative number of scratches with a hind leg was recorded at 5 minute intervals for 30 minutes. One saline injected control and one test animal were tested together in each assay.

Test [2] is described as follows: Appetite suppression in mice, chronic assay (body weight). Format: in vivo. The protocol:
Mice were injected i.p. at intervals of 2 or 3 days and weighed repeatedly (6 or 7 total injections). Controls were injected with saline. Weighing and injection were carried out between 11 AM and 1 PM.

For test [3], the system named is itch-associated scratching induced by compound 48-80. The test is described as follows: Animal model for OCD: compound 48-80-induced scratching. The class given is in vivo, male Swiss-Webster mice. The protocol: as §1
Mice were injected subcutaneously between the shoulder blades with either 0.1 ml of serotonin, 0.4 mg per ml in 0.15 M saline plus ascorbic acid, 1 mg/ml, or compound 48-80 (the copolymer product of N-methyl-p-methoxyphenethylamine with formaldehyde), 1.0 mg/ml in saline plus ascorbic acid. Test compounds were injected i.p. 5 minutes before the inducer. The cumulative number of scratches with a hind leg was recorded at 5 minute intervals for 30 minutes. […]

Test [4] is described as follows: Appetite suppression in mice, acute assay (food consumption). Format: in vivo. Conditions: for Mean food consumption 60 min. after injection: g (±SEM) Compound / Mean food consumption 90 min. after injection: g (±SEM) Compound: mice deprived of food 18 hours. The protocol: Mice were deprived of food, but not water, for 18 hours. They were then injected i.p. with test compounds dissolved in 0.9% NaCl containing 1 mg per ml ascorbic acid for protection against oxidation. Each mouse was placed in an individual cage for 30 minutes and then presented with a small petri dish containing a gel made from gelatin, powdered milk and sucrose. The dish was weighed at zero time and at 15-minute intervals for the next hour in order to quantitate food consumption. Controls were injected with saline-ascorbic acid; ±fenfluramine was used as an active control. Control consumption generally ranged from 1.5 to 2.0 grams.

A further test deals with T1, 5-HT2C (Homo sapiens, UniProt P28335).
T1 sequence (P28335 33-458): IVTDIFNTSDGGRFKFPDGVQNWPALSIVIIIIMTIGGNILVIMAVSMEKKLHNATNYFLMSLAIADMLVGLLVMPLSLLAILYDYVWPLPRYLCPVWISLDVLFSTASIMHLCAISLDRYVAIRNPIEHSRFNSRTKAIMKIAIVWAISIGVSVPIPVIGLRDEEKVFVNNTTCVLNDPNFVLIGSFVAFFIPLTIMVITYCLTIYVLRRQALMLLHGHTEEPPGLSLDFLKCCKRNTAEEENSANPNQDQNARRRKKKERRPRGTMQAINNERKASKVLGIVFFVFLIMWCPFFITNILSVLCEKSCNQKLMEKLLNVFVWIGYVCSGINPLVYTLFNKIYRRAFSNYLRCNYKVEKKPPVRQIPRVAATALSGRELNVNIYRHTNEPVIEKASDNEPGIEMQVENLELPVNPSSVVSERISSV
Conditions: background, literature; cited from earlier work.

[5] abbreviates: 20 mg/kg i.p. at intervals of 2 or 3 days.
Setting [6] is: 30 mg/kg i.p. at intervals of 2 or 3 days.

For the molecule `CN(C)CCc1cn(C)c2c(F)ccc(OP(=O)(O)O)c12` [Compound O-3944, 3-(2-Dimethylaminoethyl)-7-fluoro-1-methyl-1H-indol-4-phosphate], the figures for the “Average Number of Scratches 30 min. after injection” value in test [1] (2 mg/kg i.p. 5 minutes before inducer Serotonin), in test [1] (5 mg/kg i.p. 5 minutes before inducer Serotonin) and in test [3] (30 mg/kg i.p. 5 minutes before inducer 48-80) were 231.6, 113.4* and 0*, respectively. In addition, the “Number of Scratches as Percentage of Control” value amounted to 39.3% in test [1] (2 mg/kg i.p.); 20.2% in test [1] (5 mg/kg i.p.); 0% in test [3] (30 mg/kg i.p., inducer 48-80). Further, the “Day 7 % Δ from starting weight” value was −1.75* % in test [2] (setting [5]) and −3.66* % in test [2] (setting [6]). In addition, the “Day 7 Difference within same group” value in test [2] (setting [5]) was -0.78 g; in test [2] (setting [6]) it was -1.89 g. In addition, the “Day 14 % Δ from starting weight” value in test [2] (setting [5]) is listed as −2.04* %; in test [2] (setting [6]), −4.13* %. Moreover, the “Day 14 Difference within same group” value in test [2] (setting [5]) was -0.91 g; in test [2] (setting [6]), -2.13 g. Further, the “% of Control (food consumption 60 min. after injection)” value in test [4] (10 mg/kg i.p.) is 74%; in test [4] (20 mg/kg i.p.), 41%; in test [4] (30 mg/kg i.p.), 15%. Further, the “% of Control (food consumption 90 min. after injection)” value was determined as 75% in test [4] (10 mg/kg i.p.), 62% in test [4] (20 mg/kg i.p.) and 55% in test [4] (30 mg/kg i.p.). Moreover, the “Mean food consumption 60 min. after injection: g (±SEM) Compound” value in test [4] (10 mg/kg i.p.) is 0.84 (.17) g; in test [4] (20 mg/kg i.p.), 0.56 (.10)* g; in test [4] (30 mg/kg i.p.) it was 0.13 (.05)* g. Further, the “Mean food consumption 90 min. after injection: g (±SEM) Compound” value in test [4] (10 mg/kg i.p.) is listed as 1.38 (.13) g; in test [4] (20 mg/kg i.p.), 1.05 (.14)* g; in test [4] (30 mg/kg i.p.), 0.65 (.11)* g.

Consider `C[C@H](N)Cn1ccc2cc(F)c(Cl)cc21` [Ro 60-0175], for which the “times more active at 5-HT2C as compared to 5-HT2A” value at 5-HT2C is recorded as 25 times.
